Active and inactive are the calls of the source. No rule for the calls is given here.
System: CCRIS mutagenicity, Ames/micronucleus/aberration tests
Experiment: CCRIS mutagenicity studies
[1] = Test System: AMES SALMONELLA TYPHIMURIUM, Strain/Indicator: TA98, Metabolic Activation: NONE, Method: STANDARD PLATE
[2] = Test System: AMES SALMONELLA TYPHIMURIUM, Strain/Indicator: TA98, Metabolic Activation: RAT, LIVER, S-9, AROCLOR 1254, Method: STANDARD PLATE
[3] = Test System: AMES SALMONELLA TYPHIMURIUM, Strain/Indicator: TA100, Metabolic Activation: NONE, Method: STANDARD PLATE
[4] = Test System: AMES SALMONELLA TYPHIMURIUM, Strain/Indicator: TA100, Metabolic Activation: RAT, LIVER, S-9, AROCLOR 1254, Method: STANDARD PLATE
[5] = Test System: AMES SALMONELLA TYPHIMURIUM, Strain/Indicator: TA1535, Metabolic Activation: NONE, Method: STANDARD PLATE
[6] = Test System: AMES SALMONELLA TYPHIMURIUM, Strain/Indicator: TA1535, Metabolic Activation: RAT, LIVER, S-9, AROCLOR 1254, Method: STANDARD PLATE
[7] = Test System: AMES SALMONELLA TYPHIMURIUM, Strain/Indicator: TA1537, Metabolic Activation: NONE, Method: STANDARD PLATE
[8] = Test System: AMES SALMONELLA TYPHIMURIUM, Strain/Indicator: TA1537, Metabolic Activation: RAT, LIVER, S-9, AROCLOR 1254, Method: STANDARD PLATE
[9] = Test System: AMES SALMONELLA TYPHIMURIUM, Strain/Indicator: TA98, Metabolic Activation: NONE, Method: PREINCUBATION
[10] = Test System: AMES SALMONELLA TYPHIMURIUM, Strain/Indicator: TA100, Metabolic Activation: NONE, Method: PREINCUBATION
[11] = Test System: AMES SALMONELLA TYPHIMURIUM, Strain/Indicator: TA1535, Metabolic Activation: NONE, Method: PREINCUBATION

C/C=N/O was tested, and the mutagenic call (Test System: AMES SALMONELLA TYPHIMURIUM, Strain/Indicator: TA98, Metabolic Activation: HAMSTER, LIVER, S-9, AROCLOR 1254, Method: STANDARD PLATE) was “inactive; negative”, the mutagenic call [1] was “inactive; negative” and the mutagenic call [2] was “inactive; negative”. The mutagenic call (Test System: AMES SALMONELLA TYPHIMURIUM, Strain/Indicator: TA100, Metabolic Activation: HAMSTER, LIVER, S-9, AROCLOR 1254, Method: STANDARD PLATE) was “inactive; negative”, the mutagenic call [3] was “inactive; negative” and the mutagenic call [4] was “inactive; negative”. The mutagenic call (Test System: AMES SALMONELLA TYPHIMURIUM, Strain/Indicator: TA102, Metabolic Activation: RAT, LIVER, S-9, PHENOBARBITAL AND 5,6-BENZOFLAVONE, Method: STANDARD PLATE) was “inactive; negative”, the mutagenic call (Test System: AMES SALMONELLA TYPHIMURIUM, Strain/Indicator: TA1535, Metabolic Activation: HAMSTER, LIVER, S-9, AROCLOR 1254, Method: STANDARD PLATE) was “inactive; negative” and the mutagenic call [5] was “inactive; negative”. The mutagenic call [6] was “inactive; negative”, the mutagenic call (Test System: AMES SALMONELLA TYPHIMURIUM, Strain/Indicator: TA1537, Metabolic Activation: HAMSTER, LIVER, S-9, AROCLOR 1254, Method: STANDARD PLATE) was “inactive; negative” and the mutagenic call [7] was “inactive; negative”. The mutagenic call [8] was “inactive; negative”, the mutagenic call (Test System: AMES SALMONELLA TYPHIMURIUM, Strain/Indicator: TA1538, Metabolic Activation: HAMSTER, LIVER, S-9, AROCLOR 1254, Method: STANDARD PLATE) was “inactive; negative” and the mutagenic call (Test System: AMES SALMONELLA TYPHIMURIUM, Strain/Indicator: TA1538, Metabolic Activation: NONE, Method: STANDARD PLATE) was “inactive; negative”. The mutagenic call (Test System: AMES SALMONELLA TYPHIMURIUM, Strain/Indicator: TA1538, Metabolic Activation: RAT, LIVER, S-9, AROCLOR 1254, Method: STANDARD PLATE) was “inactive; negative”, the mutagenic call (Test System: AMES SALMONELLA TYPHIMURIUM, Strain/Indicator: TA2638, Metabolic Activation: RAT, LIVER, S-9, PHENOBARBITAL AND 5,6-BENZOFLAVONE, Method: STANDARD PLATE) was “inactive; negative” and the mutagenic call (Test System: E. COLI, Strain/Indicator: WP2 (PKM101), Metabolic Activation: RAT, LIVER, S-9, PHENOBARBITAL AND 5,6-BENZOFLAVONE, Method: STANDARD PLATE) was “inactive; negative”. The mutagenic call (Test System: E. COLI, Strain/Indicator: WP2 UVRA (PKM101), Metabolic Activation: RAT, LIVER, S-9, PHENOBARBITAL AND 5,6-BENZOFLAVONE, Method: STANDARD PLATE) was “inactive; negative”, the mutagenic call (Test System: MOUSE LYMPHOMA, Strain/Indicator: L5178Y (TK+/TK-), Metabolic Activation: RAT, LIVER, S-9, AROCLOR 1254, Method: SUSPENSION/PLATE) was “active; positive. reevaluation of results: inconclusive” and the mutagenic call (Test System: Mouse lymphoma, Strain/Indicator: L5178Y (tk+tk-), Metabolic Activation: None, Method: Suspension/plate) was “inactive; negative”. The mutagenic call (Test System: Mouse lymphoma, Strain/Indicator: L5178Y (tk+tk-), Metabolic Activation: Rat, Liver, S-9, Aroclor 1254, Method: Suspension/plate) was “active; inconclusive (previously evaluated positive)”.

For COS(=O)(=O)OC, the mutagenic call (End Point: IN VITRO CHROMOSOMAL ABERRATIONS, Test System: CHL CELLS, Metabolic Activation: NONE) was “active; positive (structural changes)”, the mutagenic call (End Point: IN VITRO CHROMOSOMAL ABERRATIONS, Test System: CHL CELLS, Metabolic Activation: RAT, LIVER, S-9, SODIUM PHENOBARBITAL AND 5,6-BENZOFLAVONE) was “active; positive (structural changes)” and the mutagenic call (End Point: In vitro micronucleus, Test System: Chinese Hamster Ovary (CHO-WBL) cells, Metabolic Activation: None) was “active; positive (p<0.01)”. The mutagenic call (Test System: AMES SALMONELLA TYPHIMURIUM, Strain/Indicator: TA98, Metabolic Activation: NONE) was “active; positive”, the mutagenic call [9] was “active; positive” and the mutagenic call (Test System: AMES SALMONELLA TYPHIMURIUM, Strain/Indicator: TA98, Metabolic Activation: S-9) was “active; positive”. For the same molecule, the mutagenic call (Test System: AMES SALMONELLA TYPHIMURIUM, Strain/Indicator: TA100, Metabolic Activation: NONE) was “active; positive”, the mutagenic call [10] was “active; positive” and the mutagenic call (Test System: AMES SALMONELLA TYPHIMURIUM, Strain/Indicator: TA100, Metabolic Activation: S-9) was “active; positive”. For the same molecule, the mutagenic call [11] was “active; positive”, the mutagenic call (Test System: AMES SALMONELLA TYPHIMURIUM, Strain/Indicator: TA1537, Metabolic Activation: NONE, Method: PREINCUBATION) was “active; positive” and the mutagenic call (Test System: AMES SALMONELLA TYPHIMURIUM, Strain/Indicator: TA1538, Metabolic Activation: NONE, Method: PREINCUBATION) was “active; positive”. The mutagenic call (Test System: CHINESE HAMSTER V-79, Strain/Indicator: V-79/6-THIOGUANINE, Metabolic Activation: NONE, Method: FLASK ASSAY) was “inactive; negative” and the mutagenic call (Test System: CHO/HGPRT, Strain/Indicator: CHO-K1-BH4, Metabolic Activation: NONE, Method: STANDARD PLATE) was “active; positive”.

With c1ccc2c(c1)ccc1c3c(ccc12)CCC3 the mutagenic call [3] was “inactive; negative” and the mutagenic call [4] was “inactive; negative”.

For COC(=O)CCC(=O)OC, the mutagenic call (Test System: AMES SALMONELLA TYPHIMURIUM, Strain/Indicator: TA97, Metabolic Activation: HAMSTER, LIVER, S-9, AROCLOR 1254 (10 OR 30%), Method: PREINCUBATION) was “inactive; negative”, the mutagenic call (Test System: AMES SALMONELLA TYPHIMURIUM, Strain/Indicator: TA97, Metabolic Activation: NONE, Method: PREINCUBATION) was “inactive; negative” and the mutagenic call (Test System: AMES SALMONELLA TYPHIMURIUM, Strain/Indicator: TA97, Metabolic Activation: RAT, LIVER, S-9, AROCLOR 1254 (10 OR 30%), Method: PREINCUBATION) was “inactive; negative”. For the same molecule, the mutagenic call (Test System: AMES SALMONELLA TYPHIMURIUM, Strain/Indicator: TA98, Metabolic Activation: HAMSTER, LIVER, S-9, AROCLOR 1254 (10 OR 30%), Method: PREINCUBATION) was “inactive; negative”, the mutagenic call [9] was “inactive; negative” and the mutagenic call [1] was “inactive; negative”. For the same molecule, the mutagenic call (Test System: AMES SALMONELLA TYPHIMURIUM, Strain/Indicator: TA98, Metabolic Activation: RAT, LIVER, S-9, AROCLOR 1254 (10 OR 30%), Method: PREINCUBATION) was “inactive; negative”, the mutagenic call [2] was “inactive; negative” and the mutagenic call (Test System: AMES SALMONELLA TYPHIMURIUM, Strain/Indicator: TA100, Metabolic Activation: HAMSTER, LIVER, S-9, AROCLOR 1254 (10 OR 30%), Method: PREINCUBATION) was “inactive; negative”. For the same molecule, the mutagenic call [10] was “inactive; negative”, the mutagenic call [3] was “inactive; negative” and the mutagenic call (Test System: AMES SALMONELLA TYPHIMURIUM, Strain/Indicator: TA100, Metabolic Activation: RAT, LIVER, S-9, AROCLOR 1254 (10 OR 30%), Method: PREINCUBATION) was “inactive; negative”. For the same molecule, the mutagenic call [4] was “inactive; negative”, the mutagenic call (Test System: AMES SALMONELLA TYPHIMURIUM, Strain/Indicator: TA1535, Metabolic Activation: HAMSTER, LIVER, S-9, AROCLOR 1254 (10 OR 30%), Method: PREINCUBATION) was “inactive; negative” and the mutagenic call [11] was “inactive; negative”. The mutagenic call [5] was “inactive; negative”, the mutagenic call (Test System: AMES SALMONELLA TYPHIMURIUM, Strain/Indicator: TA1535, Metabolic Activation: RAT, LIVER, S-9, AROCLOR 1254 (10 OR 30%), Method: PREINCUBATION) was “inactive; negative” and the mutagenic call [6] was “inactive; negative”. For the same molecule, the mutagenic call [7] was “inactive; negative” and the mutagenic call [8] was “inactive; negative”.
